Earlier results, collected in patent US8343945B2, “Carriers, formulations, methods for formulating unstable active agents for external application and uses thereof” (Foamix Ltd., priority 2007, dated 2013).
Read-outs that look alike come from different tables or passages of the source.

Legend:
[1] = cited from earlier work
[2] = cited from earlier work; remark: listed apart in the source
[3] = powder for IV administration reconstituted with sterile water for injection; cited from earlier work

## Doxycycline hyclate
[1]; 0.1-1 mg/mL in 0.9% sodium chloride or 5% dextrose, 25° C.
  IV solution stable for: 48 h
[1]; 0.1-1 mg/mL in Ringer's, 10% invert sugar, Normosol or Plasma-Lyte in dextrose, room temperature
  IV solution stable for: 12 h
[1]; 0.1-1 mg/mL in lactated Ringer's injection or 5% dextrose in lactated Ringer's
  IV solution must be infused within: ≤ 6 h
[1]; 2-8° C., protected from direct sunlight and artificial light
  IV solution stable for: 72 h
[2]; alcohol
  Solubility in alcohol: slightly soluble
[2]; solutions of alkali hydroxides and carbonates
  Solubility in solutions of alkali hydroxides and carbonates: soluble
[2]; water
  Solubility in water: soluble
[3]
  pH of solution: 1.8-3.3
